Results on 24 molecules are retold here after paper PMC5672791 (Journal of medicinal chemistry, 2015).

Like-named read-outs stand apart in the source and are kept apart here. Where a SMILES comes first, the peptide text is derived from it. Bridges are numbered along the chain shown (N, C = ends). Where no end group is shown, it is not given here. [ ]: non-standard residue; d: D form. Bip = N[C@@H](Cc1ccc(-c2ccccc2)cc1)C(=O)O

The target of experiment [1] is T1, mMC4R (Mus musculus, UniProt P56450). The format is cell-based.
The target in experiment [2] is T2, mMC1R (Mus musculus, UniProt Q01727). As to the kind of experiment: cAMP based β-galactosidase reporter assay, agonist activity at mMC1R. The format is cell-based.
For experiment [3], the target named is T3, mMC3R (Mus musculus, UniProt P33033). Type of experiment: cell-based.
Experiment [4] deals with T3, mMC3R. The note with it: cited from earlier work.
The target in experiment [5] is T1, mMC4R. The note with it: cited from earlier work; for Ki: read-out: mMC4R Ki, Ki=10^-pA2, previously reported values.
A further experiment has as its target mMC5R (Mus musculus, UniProt P41149). To be noted: read-out: mMC5R Agonist EC50; previously reported values; cited from earlier work.
For experiment [6], the target named is T2, mMC1R. To be noted: read-out: mMC1R Agonist EC50; previously reported values; cited from earlier work.
The target of a further experiment is mMC4R (Mus musculus) (UniProt P56450). As to the kind of experiment: Schild analysis. To be noted: cited from earlier work.
The target of the next experiment is mMC3R (Mus musculus) (UniProt P33033). As to the kind of experiment: Schild analysis. To be noted: cited from earlier work.
Experiment [7] addresses T4, mMC4R (Mus musculus, UniProt P56450).
T4 chain: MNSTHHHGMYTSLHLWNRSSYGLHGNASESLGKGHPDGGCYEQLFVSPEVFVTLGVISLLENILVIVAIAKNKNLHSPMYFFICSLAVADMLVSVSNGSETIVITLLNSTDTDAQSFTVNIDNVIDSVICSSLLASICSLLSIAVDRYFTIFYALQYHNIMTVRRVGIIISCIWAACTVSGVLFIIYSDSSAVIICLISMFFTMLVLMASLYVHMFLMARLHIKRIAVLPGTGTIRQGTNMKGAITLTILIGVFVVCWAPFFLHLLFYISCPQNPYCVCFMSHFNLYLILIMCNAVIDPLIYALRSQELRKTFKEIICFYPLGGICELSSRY
As to the kind of experiment: Schild analysis.

The target in experiment [8] is T5, mMC3R (Mus musculus, UniProt P33033).
T5 chain: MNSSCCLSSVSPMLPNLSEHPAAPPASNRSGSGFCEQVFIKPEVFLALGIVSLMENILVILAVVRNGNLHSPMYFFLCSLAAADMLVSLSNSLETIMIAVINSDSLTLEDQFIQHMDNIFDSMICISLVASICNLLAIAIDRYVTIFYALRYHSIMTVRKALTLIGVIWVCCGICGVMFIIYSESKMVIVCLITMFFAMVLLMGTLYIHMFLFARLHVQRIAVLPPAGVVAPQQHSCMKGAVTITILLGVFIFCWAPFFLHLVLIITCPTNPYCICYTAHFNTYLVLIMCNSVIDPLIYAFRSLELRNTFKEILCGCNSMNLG
As to the kind of experiment: Schild analysis.

T2 sequence (Q01727 whole entry): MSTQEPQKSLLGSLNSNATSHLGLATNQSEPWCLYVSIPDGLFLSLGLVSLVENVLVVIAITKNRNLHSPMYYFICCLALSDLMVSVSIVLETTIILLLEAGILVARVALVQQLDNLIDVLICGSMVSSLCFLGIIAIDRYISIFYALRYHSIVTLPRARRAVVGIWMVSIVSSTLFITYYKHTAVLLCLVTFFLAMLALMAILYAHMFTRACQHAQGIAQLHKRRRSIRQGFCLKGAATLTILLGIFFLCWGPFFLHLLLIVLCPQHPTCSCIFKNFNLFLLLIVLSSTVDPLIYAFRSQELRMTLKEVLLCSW
Sequence of mMC5R (P41149 whole entry): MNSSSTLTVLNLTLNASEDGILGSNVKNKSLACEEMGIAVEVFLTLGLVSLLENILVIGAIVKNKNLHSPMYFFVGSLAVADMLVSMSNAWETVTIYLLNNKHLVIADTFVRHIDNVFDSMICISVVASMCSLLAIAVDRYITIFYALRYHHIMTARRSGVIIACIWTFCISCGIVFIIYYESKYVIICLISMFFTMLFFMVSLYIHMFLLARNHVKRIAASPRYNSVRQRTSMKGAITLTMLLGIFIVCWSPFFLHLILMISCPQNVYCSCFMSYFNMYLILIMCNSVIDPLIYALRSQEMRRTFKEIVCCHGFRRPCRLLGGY

For `C[C@@H]1NC(=O)[C@H](CC(N)=O)NC(=O)[C@H](Cc2ccccc2)NC(=O)[C@H](Cc2ccc(-c3ccccc3)cc2)NC(=O)[C@H](CCCNC(=N)N)NC(=O)[C@@H]2CCCN2C(=O)[C@H]2CCCN2C(=O)[C@H](Cc2ccccc2)NC1=O` [Peptide 7, c[Pro-Arg-Bip-Phe-Asn-Ala-Phe-DPro]] (cyclo(R[Bip]FNAF[dP]P)), the “fold decreased antagonist potency at the mMC4R compared to 6” value at mMC4R [1] turned out to be 8 fold. The “fold more potent agonist at the mMC1R compared to 6” value on mMC1R [2] was determined as 5 fold.
On to `C[C@@H]1NC(=O)[C@H](CC(N)=O)NC(=O)[C@H](Cc2ccccc2)NC(=O)[C@@H]2Cc3ccccc3CN2C(=O)[C@H](CCCNC(=N)N)NC(=O)[C@@H]2CCCN2C(=O)[C@H]2CCCN2C(=O)[C@H](Cc2ccccc2)NC1=O` [Peptide 8, c[Pro-Arg-Tic-Phe-Asn-Ala-Phe-DPro]], for which, at mMC4R [1], the “no activity at the mMC4R up to (concentration)” value is more than 100 µM. Also, the “no activity at the mMC3R up to (concentration)” value (“no activity at the mMC3R up” below) on mMC3R [3] was more than 100 µM.
`C[C@@H]1NC(=O)[C@H](CC(N)=O)NC(=O)[C@H](Cc2ccccc2)NC(=O)[C@H](CCc2ccccc2)NC(=O)[C@H](CCCNC(=N)N)NC(=O)[C@@H]2CCCN2C(=O)[C@H]2CCCN2C(=O)[C@H](Cc2ccccc2)NC1=O` [Peptide 10, c[Pro-Arg-hPhe-Phe-Asn-Ala-Phe-DPro]]: on mMC4R [1], the “fold decreased antagonist potency at the mMC4R compared to 6” value was 5 fold.
Take `C[C@@H]1NC(=O)[C@H](CC(N)=O)NC(=O)[C@H](Cc2ccccc2)NC(=O)[C@H](Cc2ccc3ccccc3c2)NC(=O)[C@H](CCCNC(=N)N)NC(=O)[C@@H]2CCCN2C(=O)[C@H]2CCCN2C(=O)[C@H](Cc2ccccc2)NC1=O` [Peptide 13, c [Pro-Arg-Nal(2′)-Phe-Asn-Ala-Phe-DPro]]: at mMC4R [1], the “fold decreased antagonist potency at the mMC4R compared to 6” value came out at 5 fold.
In the case of `C[C@@H]1NC(=O)[C@H](CC(N)=O)NC(=O)[C@H](Cc2ccc(-c3ccccc3)cc2)NC(=O)[C@H](Cc2ccccc2)NC(=O)[C@H](CCCNC(=N)N)NC(=O)[C@@H]2CCCN2C(=O)[C@H]2CCCN2C(=O)[C@H](Cc2ccccc2)NC1=O` [Peptide 14, c[Pro-Arg-Phe-Bip-Asn-Ala-Phe-DPro]], the “fold decreased antagonist potency at the mMC4R compared to 6” value at mMC4R [1] is 8 fold. Also, at mMC3R [3], the “no activity at the mMC3R up” value is more than 100 µM. Also, the “fold more potent agonist at the mMC1R compared to 6” value on mMC1R [2] turned out to be 10 fold.
For `C[C@@H]1NC(=O)[C@H](CC(N)=O)NC(=O)[C@@H]2Cc3ccccc3CN2C(=O)[C@H](Cc2ccccc2)NC(=O)[C@H](CCCNC(=N)N)NC(=O)[C@@H]2CCCN2C(=O)[C@H]2CCCN2C(=O)[C@H](Cc2ccccc2)NC1=O` [Peptide 15, c[Pro-Arg-Phe-Tic-Asn-Ala-Phe-DPro]], the “no activity at the mMC4R up to (concentration)” value on mMC4R [1] was more than 100 µM. On mMC3R [3], the “no activity at the mMC3R up” value is more than 100 µM.
For `C[C@@H]1NC(=O)[C@H](CC(N)=O)NC(=O)[C@H](c2ccccc2)NC(=O)[C@H](Cc2ccccc2)NC(=O)[C@H](CCCNC(=N)N)NC(=O)[C@@H]2CCCN2C(=O)[C@H]2CCCN2C(=O)[C@H](Cc2ccccc2)NC1=O` [Peptide 16, c[Pro-Arg-Phe-Phg-Asn-Ala-Phe-DPro]], the “fold decreased antagonist potency at the mMC4R compared to 6” value at mMC4R [1] is 65 fold. Further, the “no activity at the mMC3R up” value on mMC3R [3] is more than 100 µM. Moreover, at mMC1R [2], the “fold decreased potency at the mMC1R compared to 6” value came out at 4 fold.
Turning to `C[C@@H]1NC(=O)[C@H](CC(N)=O)NC(=O)[C@H](Cc2cccc3ccccc23)NC(=O)[C@H](Cc2ccccc2)NC(=O)[C@H](CCCNC(=N)N)NC(=O)[C@@H]2CCCN2C(=O)[C@H]2CCCN2C(=O)[C@H](Cc2ccccc2)NC1=O` [Peptide 19, c[Pro-Arg-Phe-Nal(1′)-Asn-Ala-Phe-DPro]], the “fold decreased antagonist potency at the mMC3R compared to 6” value at mMC3R [3] (compared to 6) was 6 fold.
For the molecule `C[C@@H]1NC(=O)[C@H](CC(N)=O)NC(=O)[C@H](Cc2ccc3ccccc3c2)NC(=O)[C@H](Cc2ccccc2)NC(=O)[C@H](CCCNC(=N)N)NC(=O)[C@@H]2CCCN2C(=O)[C@H]2CCCN2C(=O)[C@H](Cc2ccccc2)NC1=O` [Peptide 20, c[Pro-Arg-Phe-Nal(2′)-Asn-Ala-Phe-DPro]], the “no activity at the mMC3R up” value on mMC3R [3] is more than 100 µM.
On to `C[C@@H]1NC(=O)CNC(=O)[C@H](Cc2ccccc2)NC(=O)[C@H](Cc2ccccc2)NC(=O)[C@H](CCCNC(=N)N)NC(=O)[C@@H]2CCCN2C(=O)[C@H]2CCCN2C(=O)[C@H](Cc2ccccc2)NC1=O` [Peptide 21, c[Pro-Arg-Phe-Phe-Gly-Ala-Phe-DPro]], for which, at mMC4R [1], the “fold increased antagonist potency at the mMC4R compared to 6” value is recorded as 5 fold. The “fold increased antagonist potency at the mMC3R compared to 6” value at mMC3R [3] (compared to 6) worked out at 16 fold.
In the case of `C[C@@H]1NC(=O)[C@H](CCCCN)NC(=O)[C@H](Cc2ccccc2)NC(=O)[C@H](Cc2ccccc2)NC(=O)[C@H](CCCNC(=N)N)NC(=O)[C@@H]2CCCN2C(=O)[C@H]2CCCN2C(=O)[C@H](Cc2ccccc2)NC1=O` [Peptide 25, c[Pro-Arg-Phe-Phe-Lys-Ala-Phe-DPro]], the “fold increased antagonist potency at the mMC4R compared to 6” value at mMC4R [1] came to 4 fold.
As for `C[C@@H]1NC(=O)[C@H](CCCNC(=N)N)NC(=O)[C@H](Cc2ccccc2)NC(=O)[C@H](Cc2ccccc2)NC(=O)[C@H](CCCNC(=N)N)NC(=O)[C@@H]2CCCN2C(=O)[C@H]2CCCN2C(=O)[C@H](Cc2ccccc2)NC1=O` [Peptide 26, c[Pro-Arg-Phe-Phe-Arg-Ala-Phe-DPro]] (cyclo(RFFRAF[dP]P)), on mMC4R [1], the “fold increased antagonist potency at the mMC4R compared to 6” value is 5 fold.
With “TAYCRFFNAFCYAR-NH2 (disulfide 4-11) [hAGRP(107-120)]”, at mMC3R [4], the “mMC3R antagonist pA2” value is recorded as 6.1. For the same molecule, at mMC4R [5], the “mMC4R antagonist pA2” value is listed as 6.6.
Turning to “Tyr-c[Cys-Arg-Phe-Phe-Asn-Ala-Phe-Cys]-Tyr (YCRFFNAFCY; bridge 2-9; not fully specified (bridges)) [hAGRP (109-118)]”, the EC50 in the experiment with mMC5R is more than 100000 nM; in the experiment with mMC1R [6], 5100 ± 3000 nM. The Ki with mMC4R [5] is 160 nM.
Turning to “YCRFFNAFCY (disulfide 2-9) [hAGRP (109-118)]”, the entries for the “mMC4R antagonist pA2” value at mMC4R [5] and on mMC4R [5] (previously reported values) were 6.8 and 6.8±0.2, respectively.
For “hAGRP (87–132): C-terminal domain of human Agouti-related protein, stabilized by five disulfide bonds”, the “mMC3R antagonist pA2” value in the experiment with mMC3R [4] was 8.9; with mMC3R [4] (previously reported values), 8.9±0.2. The EC50 in the experiment with mMC5R and in the experiment with mMC1R [6] was more than 100000 nM throughout. Besides, the “mMC4R antagonist pA2” value with mMC4R [5] was 9.4; with mMC4R [5] (previously reported values) it was 9.4±1.0. The Ki with mMC4R [5] was 0.4 nM.
“hAGRP(87-132) 87-132 (from UniProt O00253)”: the figures for the Ki in the experiment with mMC4R (Mus musculus) and with mMC3R (Mus musculus) were 0.4 nM and 1.3 nM, respectively.
With hAGRP(109-118), in the experiment with mMC4R (Mus musculus), the Ki is 160 nM.
Turning to “miniAGRP (87-120): engineered minimized derivative of AGRP(87-132) with 4 disulfide bonds and the C-terminal 12 residues removed (CVRLHESCLGQQVPCCDPAATCYCRFFNAFCYCR)”, the EC50 with mMC5R and with mMC1R [6] was more than 100000 nM throughout.
As for “miniAGRP(87-120) 87-120 (from UniProt O00253)”, the results for the Ki with mMC4R (Mus musculus) and with mMC3R (Mus musculus) were 3.2 nM and 7.9 nM, respectively.
Consider cyclo(PRFFGAF[dP]) [peptide 21], for which, in the experiment with mMC4R [7], the Ki amounted to 4 nM.
On to cyclo(PRFFKAF[dP]) [peptide 25], for which the Ki with mMC3R [8] amounted to 100 nM; with mMC4R [7] it was 5 nM.

B1: peptide 5 (peptide)
chain: cyclo(PYTRFFNAFTY[dP])
SMILES: C[C@@H]1NC(=O)[C@H](CC(N)=O)NC(=O)[C@H](Cc2ccccc2)NC(=O)[C@H](Cc2ccccc2)NC(=O)[C@H](CCCNC(=N)N)NC(=O)[C@H]([C@@H](C)O)NC(=O)[C@H](Cc2ccc(O)cc2)NC(=O)[C@@H]2CCCN2C(=O)[C@H]2CCCN2C(=O)[C@H](Cc2ccc(O)cc2)NC(=O)[C@H]([C@@H](C)O)NC(=O)[C@H](Cc2ccccc2)NC1=O
B1 returned a Ki with mMC3R [8] of 1300 nM.
Consider cyclo(PRFFRAF[dP]) [peptide 26], for which the Ki in the experiment with mMC3R [8] was found to be 200 nM; with mMC4R [7] it was 4 nM.

As a reminder, the EC50 is the concentration that produces a half-maximal response. Broadly, the Ki is a dissociation constant, usually derived from enzyme kinetics or from competition with a known ligand.
